According to paper PMC4459817, “Vasculotide reduces endothelial permeability and tumor cell extravasation in the absence of binding to or agonistic activation of Tie2” (EMBO Molecular Medicine, 2015):

B1: recombinant human Ang1 (rhAng1) (ligand, UniProt Q15389 16-498, looked up)
chain: HIGCSNQRRSPENSGRRYNRIQHGQCAYTFILPEHDGNCRESTTDQYNTNALQRDAPHVEPDFSSQKLQHLEHVMENYTQWLQKLENYIVENMKSEMAQIQQNAVQNHTATMLEIGTSLLSQTAEQTRKLTDVETQVLNQTSRLEIQLLENSLSTYKLEKQLLQQTNEILKIHEKNSLLEHKILEMEGKHKEELDTLKEEKENLQGLVTRQTYIIQELEKQLNRATTNNSVLQKQQLELMDTVHNLVNLCTKEGVLLKGGKREEEKPFRDCADVYQAGFNKSGIYTIYINNMPEPKKVFCNMDVNGGGWTVIQHREDGSLDFQRGWKEYKMGFGNPSGEYWLGNEFIFAITSQRQYMLRIELMDWEGNRAYSQYDRFHIGNEKQNYRLYLKGHTGTAGKQSSLILHGADFSTKDADNDNCMCKCALMLTGGWWFDACGPSNLNGMFYTAGQNHGKLNGIKWHYFKGPSYSLRSTTMMIRPLDF
notes: angiopoietin-1, human, recombinant; also called angiopoietin-1; source: bought: R&D Systems (named for the Boyden chamber experiments)

System: Tie2 in HMVEC-DBls
Experiment: in vitro Tie2 phosphorylation (immunoprecipitation/immunoblot), HMVEC-DBl
Format: cell-based, human
Conditions: VT 10 ng/mL vs Ang1 200 ng/mL, presence or absence of serum/supplements, Fig7F
Text: Figure 7 In vitro Vasculotide vs. Ang1 stimulations: effects on Tie2 receptor phosphorylation in primary endothelial cells—HUVECs (A-E) and HMVEC-DBls (F) • A–F Primary human umbilical vein endothelial cells (HUVECs) or primary human dermal microvascular endothelial cells (HMVEC-DBls) were stimulated at 80% confluency with Vasculotide (treatment), Ang1 (positive control; ligand of Tie2), PBS (vehicle control), or VEGF (negative control; non-ligand of Tie2). Tie2 was immunoprecipitated from cell lysates and immunoblotted for total Tie2 or phosphotyrosine. […] Source data are available online for this figure. […]
Nodule areas were then […]
unit converted (to μm2) and normalized to total lung section area (including air spaces) using ROI measurements from ImageJ software (NIH).
7. Histological assessment of primary tumor viability and hypoxia
5-μm thick sections of PFA-fixed paraffin-embedded mammary fat pad tumors were subjected to: (i) standard hematoxylin and eosin (H&E) staining to visualize viable vs. necrotic regions; or (ii) standard IHC staining with a goat anti-human carbonic anhydrase IX (CAIX or CA9) antibody (R&D Systems AF2188, 1:80 dilution) plus hematoxylin counterstain to visualize hypoxic regions. […]
IHC staining for CAIX further marks a hypoxic band at the edge of the viability rim bordering the necrotic core – the thickness of this hypoxic edge was averaged over 12 measurements spaced 30o apart (see Fig. 5E).
8. Western immunoblotting for total or phosphorylated Tie2
Cultured ECs and TCs were lysed in RIPA lysis buffer as previously described (Bogdanovic et al, 2006).
Lung/ liver/ kidney tissues, which had been snap-frozen in liquid nitrogen once harvested from mice, were homogenized in RIPA lysis buffer (50 mM Tris-HCl pH 7.5, 150 mM NaCl, 1% Igepal, 0.5% sodium deoxycholate, 0.1% SDS, 1 mM Na3VO4 and protease inhibitors) at 4 °C. […]
Semi-quantitative densitometry analysis of immunoblots was performed using the ChemiGenius2 bioimaging system and GeneSnap/GeneTools software (Syngene). […]

Molecule | Tie2 phosphorylation | Tie2 phosphorylation (listed as VT)
CHHHRHSF [Vasculotide, 4-armed maleimide-functionalized polyethylene glycol (PEG) backbone to link together four cysteine-capped T7 peptides, that is, CHHHRHSF] | did not activate Tie2 receptors in HMVEC-DBls | did not have similar activity as equimolar Ang1
B1 | strongly and consistently activated Tie2 phosphorylation | –
